Usually IC50 stands for the concentration that inhibits the measured activity by half. As a reminder, the GI50 is the concentration at which growth is held to half of that of the control.

Molecules are shown by their SMILES.

Data set [1] is described as follows: Stability analysis under in vitro assay conditions, HPLC quantification of released hydroxamic acid. It is filed as physicochemical. Particulars: in vitro assay conditions without substrate, HDAC1 present, compound 2.4 mM, 90 min 37 °C. As for the experimental part: In order to address the question if the newly-synthesized carbamates are hydrolyzed during the assay procedure or if they really serve as HDAC inhibitors themselves, stability stress tests were performed. For this purpose, the compounds were subjected to the standard in vitro assay conditions, but without adding a substrate as, no enzyme conversion should be observed in these experiments. After 90 min of incubation at 37 °C, the release of SAHA of the different samples was detected and quantified via HPLC. This led to the finding that a release of SAHA could be detected for all samples (see Table 1). […] This means that the question if the carbamate scaffold represents a new warhead for HDAC inhibition or if the degradation to SAHA is solely responsible for the observed inhibitory effects cannot be resolved completely.
To test the stability of Compound 9 under assay conditions, we also performed stability analysis with HPLC quantification. This experiment led to the finding that 8.7% of the carbamate 9 is degraded under release of bufexamac during incubation time. This fraction of released bufexamac may contribute to in vitro and cellular HDAC inhibition, but the observed selectivity profile of the carbamate in the in vitro assays clearly implies an intrinsic HDAC activity of carbamates.
For stability tests, the carbamates were subjected to the described in vitro assay conditions (see above) without adding the substrate ZMAL and without the second incubation step with trypsin. Compounds were applied in a final concentration of 2.4 mM, and recombinant HDAC1 was used as the enzyme. After 90 min of incubation at 37 °C, the release of SAHA was detected via HPLC on an Agilent 1200 series device. The employed analytical column was a Kinetex 5u XB-C18, 100 Å, 250 × 4.6 mm (Phenomenex, Torrance, CA, USA) with the ReproSil 100 C18 5-µm precolumn (Jasco, Oklahoma City, OK, USA). The following conditions were applied: Eluent A: H2O containing 0.05% TFA, Eluent B: acetonitrile containing 0.05% TFA, linear gradient conditions (0–4 min, A = 90%, B = 10%; 4–29 min, linear increase to 100% of B; 29–31 min, B = 100%; 31.5–40 min, A = 10%, B = 90%); injection volume: 30 µL, flow rate: 1 mL/min; detection wavelength: λ = 254 nm. For evaluation, the ChemStation software from Agilent was used. To quantify the released amount of SAHA and bufexamac, calibration curves were plotted by incubating DMSO stocks of these compounds under in vitro assay conditions with final compound concentrations ranging from 1 µM–200 µM. HPLC analysis with the conditions described above led to the following equations: y = 13.935x − 27.918 for SAHA and y = 0.6099x + 1.1301 for bufexamac.

Data set [2] deals with T1, recombinant human HDAC1 (Homo sapiens, UniProt Q13547).
T1 construct: purchased BPS Biosciences (San Diego, CA, USA)
In words: HDAC1 in vitro fluorescence-based inhibition assay (ZMAL substrate). It is filed as biochemical. Particulars: recombinant human HDAC1, ZMAL 10.5 µM, 90 min 37 °C; for IC50: read-out: IC50 (µM) ± SE HDAC1. The text has this: In order to investigate a potential subtype selectivity among different HDAC classes, we first tested them against the recombinant histone deacetylases HDAC1 (class I) and HDAC6 (class llb). […] To further address this issue, we also tested the respective compounds against the class l histone deacetylase HDAC8 (also see Table 1).
Recombinant human HDAC1 and 6 were purchased from BPS Biosciences (San Diego, CA, USA), and recombinant human HDAC8 was produced as described before. Inhibition tests of human HDAC1 and 6 were conducted using carboxybenzyl acetyllysine aminomethylcoumarin (ZMAL) as a substrate. […] For testing of HDAC8, the commercial Fluor de Lys drug discovery kit (BML-KI178) (Enzo Life Sciences, Lausen, Switzerland) was used according to the manufacturer’s instruction. Briefly, the test compound, Fluor de Lys-HDAC8 substrate (50 μM), and enzyme were incubated for 90 min at 37 °C with subsequent addition of 50 μL of Developer II (BML-KI176) (Enzo Life Sciences, Lausen, Switzerland) and further incubation for 45 min at 30 °C. In both assays, trichostatin A (2 μM) was used to stop the reaction. Fluorescence in both cases was measured in a plate reader (BMG Polarstar, BMG Labtech, Ortenberg, Germany) with excitation at λ = 390 nm and emission at λ = 460 nm.

The subject of data set [3] is U937 cells. The experiment in a line: Cell proliferation assay (CellTiter 96 AQueous) in U937 cells. Particulars: Homo sapiens, U-937, 72 h, read-out: GI50 (µM) ± SE U937.
Procedure: To further investigate the inhibition properties of the carbamates, we tested their antiproliferative activity on human promyelocytic leukemia cells (HL60) and on human histiocytic lymphoma cells (U937).
HL60 or U937 cells were seeded in 96-well tissue culture plates at a density of 5 × 10^4 cells per well. Cells were immediately incubated with inhibitors. As these cells already differentiate with 1% DMSO content, inhibitors were prepared as 200× stock solutions in DMSO. In all cases, inhibitors were compared to DMSO vehicle only, and three replicates per concentration were used. Growth inhibition was determined using the CellTiter 96® AQueous Non-Radioactive Cell Proliferation Assay according to the manufacturer’s instructions. Briefly, 5 × 10^4 of HL60 or U937 cells per well were treated with DMSO stocks of the respective inhibitors or with DMSO in 100 µL cell culture medium and incubated for 72 h at 37 °C and 5% CO2 in transparent 96-well microtiter plates (PAA). Subsequently, 20 µL of the detection reagent (containing a tetrazolium salt) was added to each well and incubated for 4 more hours under the same conditions. After this time, absorption was measured at a wavelength of 490 nm (BMG Polarstar, BMG Labtech, Ortenberg, Germany).
Data set [4] relates to acetylation of histone H3 and tubulin in HL60 cells. In words: Western blot of acetylation levels of histone H3 and tubulin in HL60 cells. It is filed as cell-based, human. Particulars: 4 h. As for the experimental part:
An inhibition of deacetylation in this experiment is expected to lead to hyperacetylation of the respective proteins. Besides histone H3, acetylated tubulin was chosen as a target protein. As tubulin is only accepted as a target by HDAC 6 [21], this allows us to explore subtype selectivity in a cellular setting (see Figure 4).
HL60 cells were treated with the inhibitors in the given concentrations. Cells treated with dimethyl sulfoxide as a vehicle were used as controls. After an incubation time of 4 h, cells were transferred into 50-mL Falcon tubes and centrifuged (300× g, 5 min). The supernatant was removed, and the cells were washed with PBS, before they were transferred to 1.7-mL reaction tubes. The cells were lysated with Bio-Rad loading buffer, and the cell suspension was heated to 95 °C for 5 min. The proteins then were separated using a 15% SDS-polyacrylamide gel electrophoresis and transferred to a polyvinylidene fluoride (PVDF) membrane (Roti-PVDF, Carl Roth, Karlsruhe, Germany). Acetylation levels were detected using an anti-acetyl histone H3 antibody (Millipore, Billerica, MA, USA) and an anti-acetyl-α-tubulin antibody (Sigma Aldrich, St. Louis, MO, USA). An antibody directed against GAPDH (Sigma Aldrich) was used as a loading control.
Background: In western blotting, separated proteins are transferred to a membrane and probed.

T1 sequence (Q13547 whole entry): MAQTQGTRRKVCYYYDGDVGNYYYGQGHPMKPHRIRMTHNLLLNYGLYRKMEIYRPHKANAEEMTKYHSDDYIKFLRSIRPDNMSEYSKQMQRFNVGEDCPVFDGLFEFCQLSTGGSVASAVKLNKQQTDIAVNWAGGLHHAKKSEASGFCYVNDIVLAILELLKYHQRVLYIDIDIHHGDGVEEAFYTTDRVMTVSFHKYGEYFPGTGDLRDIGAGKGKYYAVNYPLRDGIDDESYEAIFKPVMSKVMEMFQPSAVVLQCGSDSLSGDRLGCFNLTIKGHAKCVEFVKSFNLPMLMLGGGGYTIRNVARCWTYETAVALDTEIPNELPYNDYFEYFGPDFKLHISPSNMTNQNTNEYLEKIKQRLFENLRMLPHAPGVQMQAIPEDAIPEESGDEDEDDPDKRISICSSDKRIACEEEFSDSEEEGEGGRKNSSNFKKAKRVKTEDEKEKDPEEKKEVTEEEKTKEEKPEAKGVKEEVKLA

Regarding `CCNC(=O)ONC(=O)CCCCCCC(=O)Nc1ccccc1` [Compound 2c, [(8-Anilino-8-oxo-octanoyl)amino]N-ethylcarbamate], the “Release of SAHA (%)” value in data set [1] is 14.5%. Also, the half-inhibitory concentration (IC50) in data set [2] is 0.79 ± 0.01 µM. In addition, the 50% growth inhibitory concentration (GI50) in data set [3] was determined as 0.88 ± 0.13 µM.
Regarding `O=C(CCCCCCC(=O)Nc1ccccc1)NOC(=O)NCc1ccccc1` [Compound 2b, [(8-Anilino-8-oxo-octanoyl)amino]N-benzylcarbamate], the “Release of SAHA (%)” value in data set [1] amounted to 0.5%. In addition, the IC50 in data set [2] was found to be 0.74 ± 0.01 µM. For the same compound, the concentration for 50% growth inhibition (GI50) in data set [3] was 0.68 ± 0.09 µM.
`CC(C)NC(=O)ONC(=O)CCCCCCC(=O)Nc1ccccc1` [Compound 2a, [(8-Anilino-8-oxo-octanoyl)amino]N-isopropylcarbamate]: the “Release of SAHA (%)” value in data set [1] was 2.2%. In addition, in data set [2], the “IC50 (µM) ± SE HDAC1” value is listed as “low micromolar range” and the 50% inhibitory concentration (IC50) was 1.52 ± 0.02 µM. Moreover, the GI50 in data set [3] amounted to 0.49 ± 0.09 µM.
In the case of `O=C(CCCCCCC(=O)Nc1ccccc1)NOC(=O)Nc1ccccc1` [Compound 2d, [(8-Anilino-8-oxo-octanoyl)amino]N-phenylcarbamate], the “Release of SAHA (%)” value in data set [1] is given as 4.6%. Also, the half-maximal inhibitory concentration (IC50) in data set [2] was 0.132 ± 0.001 µM. Further, in data set [4], the “effect on H3 and tubulin acetylation levels” value is “in the same range as SAHA”. In data set [3], the GI50 amounted to 0.42 ± 0.13 µM.

(Values after publication PMC6017415, “Carbamates as Potential Prodrugs and a New Warhead for HDAC Inhibition” (Molecules : A Journal of Synthetic Chemistry and Natural …, 2018).)
